Values belong to the compound of their own block, whether it stands above or below them.
Columns and labels:
Type in all cases: in vivo
Abutilon theophrasti [1] = assay: Herbicidal action post-emergence (greenhouse pot trial); details: scored visually after about 3 weeks vs untreated controls
How it was run: (§1)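 Post-emergence spray at one-leaf stage (2–3 wk after sowing, sandy loam, greenhouse); WP/EC in water + 0.5% additive; 600 L/ha; rate 80 g/ha or less. Visual % efficacy at ~3 wk vs untreated (100 = dead).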

Amaranthus retroflexus [2] = assay: as above; details: scored visually after about 3 weeks vs untreated controls
How it was run: as §1

Digitaria sanguinalis [3] = assay: as above
How it was run: as §1

Echinochloa crus-galli [4] = assay: as above; details: scored visually after about 3 weeks vs untreated controls
How it was run: as §1

Matricaria inodora [5] = assay: as above; details: scored visually after about 3 weeks vs untreated controls
How it was run: as §1

Pharbitis purpurea [6] = assay: as above
How it was run: as §1

Polygonum convolvulus = assay: as above; details: scored visually after about 3 weeks vs untreated controls
How it was run: as §1

Setaria viridis [7] = assay: as above; details: scored visually after about 3 weeks vs untreated controls
How it was run: as §1

Stellaria media [8] = assay: as above; details: scored visually after about 3 weeks vs untreated controls
How it was run: as §1

Veronica persica [9] = assay: as above
How it was run: as §1

Viola tricolor [10] = assay: as above
How it was run: as §1

Oryza sativa = assay: Crop compatibility post-emergence (greenhouse pot trial)
How it was run: (§2)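 Visual % damage vs untreated controls, ~3 wk post-spray (100% = plants died, 0% = as control). Plants in sandy loam, greenhouse, sprayed at one-leaf stage (2–3 wk after sowing); WP/EC in water + 0.5% additive, 600 L/ha.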

Triticum aestivum = assay: as above
How it was run: as §2

Zea mays [11] = assay: as above; details: application rate 20 g/ha
How it was run: as §2

Abutilon theophrasti [12] = assay: Herbicidal action pre-emergence (greenhouse pot trial); details: scored after about 3 weeks
Source text: (§3) Seeds of mono- and dicotyledonous weeds and crop plants were laid out in plastic or organic plant pots and covered with soil. The compounds of the invention formulated in the form of wettable powders (WP) or emulsion concentrates (EC) were then applied to the surface of the covering soil as an aqueous suspension or emulsion with addition of 0.5% additive at a water application rate equivalent to 600 L/ha. After the treatment, the pots were placed in a greenhouse and kept under good growth conditions for the test plants. After about 3 weeks, the efficacy of the preparations was scored visually as a percentage by comparison with untreated controls. For example, 100% efficacy=plants have died, 0% efficacy=like control plants. Tables B1 to B16 below show the efficacies of selected compounds of the general formula (I) according to tables I.1 to I.60 on various harmful plants and an application rate corresponding to 320 g/ha or lower that were obtained by the aforementioned trial method.

Amaranthus retroflexus [13] = assay: as above; details: scored after about 3 weeks
Source text: as §3

Digitaria sanguinalis [14] = assay: as above; details: application rate 80 g/ha
Source text: as §3

Matricaria inodora [15] = assay: as above; details: scored after about 3 weeks
Source text: as §3

Pharbitis purpurea [16] = assay: as above
Source text: as §3

Setaria viridis [17] = assay: as above; details: scored after about 3 weeks
Source text: as §3

Stellaria media [18] = assay: as above; details: scored after about 3 weeks
Source text: as §3

Veronica persica [19] = assay: as above
Source text: as §3

Viola tricolor [20] = assay: as above; details: scored after about 3 weeks
Source text: as §3

Zea mays [21] = assay: Crop compatibility pre-emergence (greenhouse pot trial); details: effect vs untreated controls
Source text: as §3, with “plants.” for “plants. Tables B1 to B16 below show the efficacies of selected compounds of the general formula (I) according to tables I.1 to I.60 on various harmful plants and an application rate corresponding to 320 g/ha or lower that were obtained by the aforementioned trial method.”
(§4) Crop compatibilities were also scored correspondingly.
(§5) The effects observed are reported here on selected crop plants by comparison with the untreated controls (values in %).

Alopecurus myosuroides [22] = assay: Herbicidal action post-emergence (greenhouse pot trial); details: application rate 80 g/ha, scored visually after about 3 weeks vs untreated controls
How it was run: as §1

Hordeum murinum = assay: as above; details: application rate 80 g/ha, scored visually after about 3 weeks vs untreated controls
How it was run: as §1

Lolium rigidum [23] = assay: as above; details: application rate 80 g/ha, scored visually after about 3 weeks vs untreated controls
How it was run: as §1

Alopecurus myosuroides [24] = assay: Herbicidal action pre-emergence (greenhouse pot trial); details: application rate 320 g/ha, scored after about 3 weeks
Source text: as §3

Avena fatua = assay: as above; details: application rate 320 g/ha
Source text: as §3

Echinochloa crus-galli [25] = assay: as above; details: application rate 320 g/ha, scored after about 3 weeks
Source text: as §3

Lolium rigidum [26] = assay: as above; details: application rate 320 g/ha
Source text: as §3

Glycine max = assay: Crop compatibility pre-emergence (greenhouse pot trial); details: effect vs untreated controls
Source text: as §3, with “plants.” for “plants. Tables B1 to B16 below show the efficacies of selected compounds of the general formula (I) according to tables I.1 to I.60 on various harmful plants and an application rate corresponding to 320 g/ha or lower that were obtained by the aforementioned trial method.”
as §4, §5

Oryza sativa (Efficacy in %) (Oryza sativa; application rate 20 g/ha): 10%
Triticum aestivum (Efficacy in %) (Triticum aestivum; application rate 5 g/ha): 0%
Zea mays (Efficacy in %) (Zea mays [11]): 20%
Zea mays (Efficacy in %) (Zea mays [21]; application rate 80 g/ha): 0%
Structure (SMILES): CC(Sc1cc(-n2c(=O)cc(C(F)(F)F)n(C)c2=O)c(F)cc1Cl)C(=O)OCC1CCSC1 (centres unmarked) [I.1-82]
Abutilon theophrasti (Efficacy in %) (Abutilon theophrasti [1]; application rate 20 g/ha): 100%
Amaranthus retroflexus (Efficacy in %) (Amaranthus retroflexus [2]; application rate 20 g/ha): 100%
Digitaria sanguinalis (Efficacy in %) (Digitaria sanguinalis [3]; application rate 20 g/ha): 100%
Echinochloa crus-galli (Efficacy in %) (Echinochloa crus-galli [4]; application rate 20 g/ha): 100%
Matricaria inodora (Efficacy in %) (Matricaria inodora [5]; application rate 20 g/ha): 100%
Pharbitis purpurea (Efficacy in %) (Pharbitis purpurea [6]; application rate 20 g/ha): 100%
Polygonum convolvulus (Efficacy in %) (Polygonum convolvulus; application rate 20 g/ha): 100%
Setaria viridis (Efficacy in %) (Setaria viridis [7]; application rate 20 g/ha): 80%
Stellaria media (Efficacy in %) (Stellaria media [8]; application rate 20 g/ha): 80%
Veronica persica (Efficacy in %) (Veronica persica [9]; application rate 20 g/ha): 100%
Viola tricolor (Efficacy in %) (Viola tricolor [10]; application rate 20 g/ha): 100%
Abutilon theophrasti (Efficacy in %) (Abutilon theophrasti [12]; application rate 80 g/ha): 100%
Amaranthus retroflexus (Efficacy in %) (Amaranthus retroflexus [13]; application rate 80 g/ha): 100%
Digitaria sanguinalis (Efficacy in %) (Digitaria sanguinalis [14]): 80%
Matricaria inodora (Efficacy in %) (Matricaria inodora [15]; application rate 80 g/ha): 100%
Pharbitis purpurea (Efficacy in %) (Pharbitis purpurea [16]; application rate 80 g/ha): 100%
Setaria viridis (Efficacy in %) (Setaria viridis [17]; application rate 80 g/ha): 100%
Stellaria media (Efficacy in %) (Stellaria media [18]; application rate 80 g/ha): 100%
Veronica persica (Efficacy in %) (Veronica persica [19]; application rate 80 g/ha): 100%
Viola tricolor (Efficacy in %) (Viola tricolor [20]; application rate 80 g/ha): 100%

Oryza sativa (Efficacy in %) (Oryza sativa; application rate 20 g/ha): 20%
Triticum aestivum (Efficacy in %) (Triticum aestivum; application rate 20 g/ha): 20%
Glycine max (Efficacy in %) (Glycine max; application rate 20 g/ha): 0%
Zea mays (Efficacy in %) (Zea mays [21]; application rate 320 g/ha): 20%
Structure (SMILES): Cn1c(C(F)(F)F)cc(=O)n(-c2cc(SCC(C)(C)C(=O)OCC3CCCO3)c(Cl)cc2F)c1=O (centres unmarked) [I.48-71]
Abutilon theophrasti (Efficacy in %) (Abutilon theophrasti [1]; application rate 80 g/ha): 100%
Alopecurus myosuroides (Efficacy in %) (Alopecurus myosuroides [22]): 90%
Amaranthus retroflexus (Efficacy in %) (Amaranthus retroflexus [2]; application rate 80 g/ha): 100%
Digitaria sanguinalis (Efficacy in %) (Digitaria sanguinalis [3]; application rate 80 g/ha): 100%
Echinochloa crus-galli (Efficacy in %) (Echinochloa crus-galli [4]; application rate 80 g/ha): 100%
Hordeum murinum (Efficacy in %) (Hordeum murinum): 80%
Lolium rigidum (Efficacy in %) (Lolium rigidum [23]): 80%
Matricaria inodora (Efficacy in %) (Matricaria inodora [5]; application rate 80 g/ha): 100%
Pharbitis purpurea (Efficacy in %) (Pharbitis purpurea [6]; application rate 80 g/ha): 100%
Polygonum convolvulus (Efficacy in %) (Polygonum convolvulus; application rate 80 g/ha): 100%
Setaria viridis (Efficacy in %) (Setaria viridis [7]; application rate 80 g/ha): 100%
Stellaria media (Efficacy in %) (Stellaria media [8]; application rate 80 g/ha): 100%
Veronica persica (Efficacy in %) (Veronica persica [9]; application rate 80 g/ha): 100%
Viola tricolor (Efficacy in %) (Viola tricolor [10]; application rate 80 g/ha): 100%
Abutilon theophrasti (Efficacy in %) (Abutilon theophrasti [12]; application rate 320 g/ha): 100%
Alopecurus myosuroides (Efficacy in %) (Alopecurus myosuroides [24]): 100%
Amaranthus retroflexus (Efficacy in %) (Amaranthus retroflexus [13]; application rate 320 g/ha): 100%
Avena fatua (Efficacy in %) (Avena fatua): 80%
Digitaria sanguinalis (Efficacy in %) (Digitaria sanguinalis [14]): 100%
Echinochloa crus-galli (Efficacy in %) (Echinochloa crus-galli [25]): 100%
Lolium rigidum (Efficacy in %) (Lolium rigidum [26]): 90%
Matricaria inodora (Efficacy in %) (Matricaria inodora [15]; application rate 320 g/ha): 100%
Pharbitis purpurea (Efficacy in %) (Pharbitis purpurea [16]; application rate 320 g/ha): 100%
Setaria viridis (Efficacy in %) (Setaria viridis [17]; application rate 320 g/ha): 100%
Stellaria media (Efficacy in %) (Stellaria media [18]; application rate 320 g/ha): 100%
Veronica persica (Efficacy in %) (Veronica persica [19]; application rate 320 g/ha): 100%
Viola tricolor (Efficacy in %) (Viola tricolor [20]; application rate 320 g/ha): 100%

Oryza sativa (Efficacy in %) (Oryza sativa; application rate 5 g/ha): 0%
Oryza sativa (Efficacy in %) (Oryza sativa; application rate 20 g/ha): 10%
Triticum aestivum (Efficacy in %) (Triticum aestivum; application rate 20 g/ha): 20%
Glycine max (Efficacy in %) (Glycine max; application rate 320 g/ha): 10%
Zea mays (Efficacy in %) (Zea mays [21]; application rate 320 g/ha): 0%
Structure (SMILES): Cn1c(C(F)(F)F)cc(=O)n(-c2cc(SCC(C)(C)C(=O)OCC3CCOC3)c(Cl)cc2F)c1=O (centres unmarked) [I.48-72]
Abutilon theophrasti (Efficacy in %) (Abutilon theophrasti [1]; application rate 80 g/ha): 100%
Alopecurus myosuroides (Efficacy in %) (Alopecurus myosuroides [22]): 90%
Amaranthus retroflexus (Efficacy in %) (Amaranthus retroflexus [2]; application rate 80 g/ha): 100%
Digitaria sanguinalis (Efficacy in %) (Digitaria sanguinalis [3]; application rate 80 g/ha): 100%
Echinochloa crus-galli (Efficacy in %) (Echinochloa crus-galli [4]; application rate 80 g/ha): 100%
Lolium rigidum (Efficacy in %) (Lolium rigidum [23]): 80%
Matricaria inodora (Efficacy in %) (Matricaria inodora [5]; application rate 80 g/ha): 100%
Pharbitis purpurea (Efficacy in %) (Pharbitis purpurea [6]; application rate 80 g/ha): 100%
Polygonum convolvulus (Efficacy in %) (Polygonum convolvulus; application rate 80 g/ha): 100%
Setaria viridis (Efficacy in %) (Setaria viridis [7]; application rate 80 g/ha): 100%
Stellaria media (Efficacy in %) (Stellaria media [8]; application rate 80 g/ha): 100%
Veronica persica (Efficacy in %) (Veronica persica [9]; application rate 80 g/ha): 100%
Viola tricolor (Efficacy in %) (Viola tricolor [10]; application rate 80 g/ha): 100%
Abutilon theophrasti (Efficacy in %) (Abutilon theophrasti [12]; application rate 320 g/ha): 100%
Alopecurus myosuroides (Efficacy in %) (Alopecurus myosuroides [24]): 90%
Amaranthus retroflexus (Efficacy in %) (Amaranthus retroflexus [13]; application rate 320 g/ha): 100%
Avena fatua (Efficacy in %) (Avena fatua): 80%
Digitaria sanguinalis (Efficacy in %) (Digitaria sanguinalis [14]): 100%
Echinochloa crus-galli (Efficacy in %) (Echinochloa crus-galli [25]): 100%
Lolium rigidum (Efficacy in %) (Lolium rigidum [26]): 80%
Matricaria inodora (Efficacy in %) (Matricaria inodora [15]; application rate 320 g/ha): 100%
Pharbitis purpurea (Efficacy in %) (Pharbitis purpurea [16]; application rate 320 g/ha): 100%
Setaria viridis (Efficacy in %) (Setaria viridis [17]; application rate 320 g/ha): 100%
Stellaria media (Efficacy in %) (Stellaria media [18]; application rate 320 g/ha): 100%
Veronica persica (Efficacy in %) (Veronica persica [19]; application rate 320 g/ha): 100%
Viola tricolor (Efficacy in %) (Viola tricolor [20]; application rate 320 g/ha): 100%

— US11497212B2, “Substituted thiophenyl uracils, salts thereof and the use thereof as herbicidal agents” (Syngenta Crop Protection AG, priority 2017, dated 2022)
